Assay results published in US5922558A, “Methods and compositions for generating chemiluminescence with a peroxidase” (Lumigen, Inc., priority 1997, dated 1999).
Entries after “also recorded” stand apart in the source; their conditions may differ.

How the values were obtained:
[1] = target: T1, horseradish peroxidase (HRP) (Armoracia rusticana, UniProt P00433); assay: Chemiluminescent detection of HRP in solution with reagent composition (tris buffer, urea peroxide, p-phenylphenol, EDTA, Tween 20); format: biochemical
T1 sequence (P00433 31-353): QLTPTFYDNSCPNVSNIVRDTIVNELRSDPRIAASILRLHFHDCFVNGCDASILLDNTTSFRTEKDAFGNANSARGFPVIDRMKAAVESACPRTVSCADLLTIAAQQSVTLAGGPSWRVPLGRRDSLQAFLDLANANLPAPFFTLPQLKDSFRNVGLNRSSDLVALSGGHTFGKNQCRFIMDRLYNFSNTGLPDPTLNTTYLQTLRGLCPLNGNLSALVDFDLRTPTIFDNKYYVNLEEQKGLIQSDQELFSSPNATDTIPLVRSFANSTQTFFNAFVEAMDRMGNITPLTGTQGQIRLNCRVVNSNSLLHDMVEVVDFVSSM
Experimental: Reagent compositions comprising 0.055M tris buffer, pH 8.6, 0.25 mM urea peroxide, 0.05 mM p-phenylphe nol, 0.5 mM EDTA, 0.0125% Tween 20 and 3.3×10^-4 M acridan 5 were tested for production of chemiluminescence by reacting triplicate 100 μL aliquots with 10 μL of solutions of HRP in water containing between 1.4×10^-15 and 1.4×10^-19 moles of enzyme. […] The relation between chemiluminescence intensity at 15 min and amount of enzyme is depicted in FIG. 1.
Reagent compositions comprising 0.055M tris buffer, pH 8.6, 0.25 mM urea peroxide, 0.05 mM p-phenylphenol, 0.5 mM EDTA, 0.0125% Tween 20 and 3.3×10^-4 M acridan 13 were tested for production of chemiluminescence by reacting triplicate 100 μL aliquots with 10 μL of solutions of HRP in water containing between 1.4×10^-15 and 1.4×10^-19 moles of enzyme. […] The relation between chemiluminescence intensity and amount of enzyme is depicted in FIG. 2.
In the manner of Example 21, compositions containing each of compounds 1-4 and 6-12 and 14 were reacted with HRP at 25° C. Each produced easily measurable chemiluminescence discernable above the background measured in the absence of HRP.
The chemiluminescence profile of acridan phosphate 5 reacted with HRP is depicted in FIG. 3. Reaction of 100 μL of the reagent composition of Example 20 with 1.4×10^-15 mol of HRP at 25° C. caused an instant rise in light emission which achieved maximum intensity in ca. 5 min.
Reagent compositions comprising 0.01M tris buffer, pH 8.0, 0.5 mM urea peroxide, 0.1 mM p-phenylphenol, 1 mM EDTA, 0.025% Tween 20 and 5×10^-5 M acridan 37 were tested for production of chemiluminescence by reacting triplicate 100 μL aliquots with 10 μL of HRP in the range 1.4×10^-14 to 1.4×10^-19 moles. […] The relation between chemiluminescence intensity and amount of enzyme is depicted in FIG. 4.
A reagent composition (40 μL) comprising 0.01M tris buffer, pH 8.0, 0.5 mM urea peroxide, 0.1 mM p-phenylphenol, 1 mM EDTA, 0.025% Tween 20 and 5×10^-5 M acridan 38 was reacted with 1 μL of a solution containing 1.4×10^-15 moles of HRP. […] The chemiluminescence time profile is depicted in FIG. 5.
Reagent compositions comprising 0.01M tris buffer, pH 8.0, 0.5 mM urea peroxide, 0.1 mM p-phenylphenol, 1 mM EDTA, 0.025% Tween 20 and 5×10^-5 M acridan 39 were tested for production of chemiluminescence by reacting triplicate 100 μL aliquots with 10 μL of HRP in the range 1.4×10^-15 to 1.4×10^-20 moles. […] The relation between chemiluminescence intensity and amount of enzyme is depicted in FIG. 6.
A reagent composition (100 μL) comprising 0.01M tris buffer, pH 8.0, 0.5 mM urea peroxide, 0.1 mM p-phenylphenol, 1 mM EDTA, 0.025% Tween 20 and 5×10^-5 M acridan 40 was reacted with 10 μL of a solution containing 1.4×10^-15 moles of HRP.
A reagent composition (100 μL) comprising 0.01M tris buffer, pH 8.0, 0.5 mM urea peroxide, 0.1 mM p-phenylphenol, 1 mM EDTA, 0.025% Tween 20 and 5×10^-5 M acridan 50 was reacted with 2.5 μL of a solution containing 3.5×10^-16 moles of HRP. […] The chemiluminescence time profile is depicted in FIG. 7.
Reagent compositions comprising 0.055M tris buffer, pH 8.6, 0.25 mM urea peroxide, 0.05 mM p-phenylphenol, 0.5 mM EDTA, 0.0125% Tween 20, 1 mM CTAB and 6.6×10^-4 M acridan 43 were tested for production of chemiluminescence by reacting triplicate 100 μL aliquots with 10 μL of solutions of HRP containing between 1.4×10^-15 and 1.4×10^-19 moles of HRP. The relation between chemiluminescence intensity at 15 min and amount of enzyme is depicted in FIG. 8.
Reagent compositions comprising 0.055M tris buffer, pH 8.6, 0.25 mM urea peroxide, 0.05 mM p-phenylphenol, 0.5 mM EDTA, 0.0125% Tween 20, 1 mM CTAB and 6.6×10^-4 M compound 46 alone or with 50 μM DBA were tested for production of chemiluminescence by reacting a 100 μL aliquot with 3.5×10^-15 moles of HRP.

[2] = target: T2, sheep anti-mouse-HRP conjugate (Armoracia rusticana, UniProt P00433); assay: Western blot assay of β-galactosidase via an HRP-labeled antibody with chemiluminescent reagent, X-ray film; details: for Western blot result compared with reagent containing compound 5: both PVDF and nitrocellulose membranes
T2 construct: purchased Boehringer-Mannheim
T2 sequence (P00433 31-338 limits assumed): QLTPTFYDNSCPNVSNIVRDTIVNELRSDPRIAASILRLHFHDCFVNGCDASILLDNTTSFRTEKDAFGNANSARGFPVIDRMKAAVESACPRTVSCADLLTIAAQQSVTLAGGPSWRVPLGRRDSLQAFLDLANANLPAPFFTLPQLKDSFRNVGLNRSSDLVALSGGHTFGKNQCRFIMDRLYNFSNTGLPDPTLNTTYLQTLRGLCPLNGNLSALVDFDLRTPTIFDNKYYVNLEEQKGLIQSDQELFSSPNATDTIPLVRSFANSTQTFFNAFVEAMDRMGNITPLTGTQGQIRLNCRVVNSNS
Source text: Compositions of the present invention were used to detect and quantify a protein, β-galactosidase (β-gal) in a Western blot with an HRP-labeled antibody on a polyvinylidene difluoride (PVDF) membrane. Dilutions of β-gal containing 5000, 1000, 180, 30 and 5 pg, respectively, of protein were electrophoresed and transferred to PVDF membranes (Millipore, Bedford, Mass.). The membranes were blocked with 1% non-fat milk in T-TBS (0.05% Tween 20 in TBS; TBS is 50 mmol/L Tris-HCl, pH 7.4, 0.15 mol/L NaCl) and then reacted sequentially with a 1:1500 dilution of mouse anti-β-gal (Boehringer-Mannheim, Indianapolis) and 1:600 dilution of sheep anti-mouse-HRP conjugate (Boehringer-Mannheim). The membranes were washed in T-TBS and soaked for 3 min with a reagent comprising 0.055M tris buffer, pH 8.6 containing 0.66 mM acridan phosphate 5, 0.05 mM p-phenylphenol, 0.25 mM urea peroxide, 0.5 mM EDTA, 0.0125% Tween 20. The membranes were placed between transparent plastic sheets and exposed to X-ray film. […] The light produced led to intense emission which could be imaged for several hours.
A Western blot assay according to the procedure in the previous example was performed using nitrocellulose membrane (Schleicher & Schuell, Keene, N.H.) as the solid phase. β-Galstandards in the range of 5000-5 pg were used. The detection reagent of the previous example permitted detection to be performed over several hours.

peroxidase = target: T3, peroxidase (Armoracia rusticana, UniProt P00433); assay: Reaction with a peroxidase and a peroxide to produce chemiluminescence (general statements); format: biochemical; details: with versus without CTAB
T3 construct: isoenzyme C dominant
T3 sequence (P00433 31-338): T2 sequence (P00433 31-338 limits assumed)
Experimental: Another aspect of the present invention is the use of compounds of any of formulas I-VI in a method to produce chemiluminescence by reaction with a peroxidase. Reaction of a compound of formula I-VI with a peroxidase and a peroxide in an aqueous buffer solution produces easily detected chemiluminescence. Light intensity reaches a maximum level within minutes at room temperature when the reaction is conducted at alkaline pH. The reaction is conducted optionally in the presence of an enhancer. [drawing 15] Cationic surfactants, including quaternary ammonium salt compounds such as CTAB, are advantageous for use in increasing the level of chemiluminescence emitted when certain compounds of the present invention are reacted with a peroxidase and a peroxide.

[3] = 0.01M tris pH 8.0, 0.5 mM urea peroxide, 0.1 mM p-phenylphenol, 5×10^-5 M acridan
[4] = 0.055M tris pH 8.6, 0.25 mM urea peroxide, 0.05 mM p-phenylphenol, 3.3×10^-4 M compound, HRP 1.4×10^-15 to 1.4×10^-19 moles

With `CCOP(=O)(OCC)OC(Sc1ccccc1)=C1c2ccccc2N(C)c2ccccc21` [Compound 38] the “production of chemiluminescence on reaction with HRP” value (from here on “production of chemiluminescence”) [1, 3] was “Light production ensued upon mixing” and the “time to maximum chemiluminescence intensity” value (from here on “time”) ([1]; 40 μL reagent, 0.01M tris pH 8.0, 5×10^-5 M acridan, 1.4×10^-15 moles HRP, 25° C.) was 1 min.

In the case of `CCOP(=O)(OCC)OC(Oc1ccccc1)=C1c2ccccc2N(C)c2ccccc21` [Compound 37], the “production of chemiluminescence” value [1, 3] is reported as “Light production ensued upon mixing”.

With `CN1c2ccccc2C(=C(OP(=O)(O)O)Sc2ccc3ccccc3c2)c2ccccc21` [Compound 13] the “production of chemiluminescence” value [1, 4] was “Light production ensued upon mixing” and the “Western blot result compared with reagent containing compound 5” value [2] was “qualitatively the same result”.

With `CC(=O)OC(Oc1ccccc1)=C1c2ccccc2N(C)c2ccccc21` [Compound 39] the “production of chemiluminescence” value [1, 3] was “Light production ensued upon mixing” and the “time” value ([1]; 100 μL reagent, 0.01M tris pH 8.0, 5×10^-5 M acridan, HRP 1.4×10^-15 to 1.4×10^-20 moles) was 30 min.

For `O=P(O)(O)OC(Sc1ccccc1)=C(c1ccccc1)c1ccccc1` [Compound 46], the “effect of triplet energy acceptor DBA on chemiluminescence” value ([1]; 0.055M tris pH 8.6, 1 mM CTAB, 6.6×10^-4 M compound alone or with 50 μM DBA, 3.5×10^-15 moles HRP) was “enhancement of chemiluminescence” and the “change of light intensity when CTAB was included in the reaction mixture” value (peroxidase) was “increased more than ten-fold”.

For `CN1c2ccccc2C(=C(OP(=O)(O)O)Sc2ccccc2)c2ccccc21` [Compound 5], the “production of chemiluminescence” value [1, 4] was “Light production ensued upon mixing”, the “time” value ([1]; 100 μL reagent of Example 20 (0.055M tris pH 8.6, 3.3×10^-4 M acridan), 1.4×10^-15 mol HRP, 25° C.) was “ca. 5 min” and the “duration over which emission could be imaged, Western blot, PVDF membrane” value ([2]; 0.66 mM compound, tris pH 8.6) was “several hours”. The “detection of β-gal in Western blot, PVDF membrane” value ([2]; β-gal 5000, 1000, 180, 30 and 5 pg, 0.66 mM compound, 30 s exposure after 14 min) was “detection of β-gal; also recorded: detected”.

`COC(Sc1ccccc1)=C1c2ccccc2N(C)c2ccccc21` [Compound 50] was tested, and the “production of chemiluminescence” value [1, 3] was “Light production ensued upon mixing” and the “time” value ([1]; 100 μL reagent, 0.01M tris pH 8.0, 5×10^-5 M acridan, 3.5×10^-16 moles HRP, 25° C.) was 7 min.

In the case of `CN1c2ccccc2C(=C(Oc2ccccc2)OP(=O)(O)O)c2ccccc21` [Compound 1], the “Western blot result compared with reagent containing compound 5” value [2] is reported as “qualitatively the same result”.

For `CC(=C(OP(=O)(O)O)Sc1ccccc1)c1ccc2cc(O)ccc2c1` [Compound 43], the “change of light intensity when CTAB was included in the reaction mixture” value (peroxidase) was “increased more than ten-fold”.

For `CC(=O)OC(Sc1ccccc1)=C1c2ccccc2N(C)c2ccccc21` [Compound 40], the “production of chemiluminescence” value [1, 3] was “Light production ensued upon mixing” and the “time” value ([1]; 100 μL reagent, 0.01M tris pH 8.0, 5×10^-5 M acridan, 1.4×10^-15 moles HRP) was 7 min.

`CN1c2ccccc2C(=C(OP(=O)(O)O)Sc2ccc(Cl)cc2)c2ccccc21` [Compound 12] was tested, and the “Western blot result compared with reagent containing compound 5” value [2] was “qualitatively the same result”.
